Experimental data reported in patent US20040242974A1, “Treatment of refractory depression with an opiate antagonist and an antidepressant” (priority 2001, published 2004).
Values joined by “and” are separate entries in the source; they are usually repeats but may differ in a detail not shown here. Equal entries are not always repeated.

Assays:
[1] = test system: refractory depression characterized by dissociation; experiment: Glover Numbing Scale (GNS) self-report questionnaire measuring numbness/dissociation in the treated patient; type: in vivo, human
Source text: The Glover Numbing Scale was constructed to measure symptoms associated with the numb responses, and provides an adequate measure for determining whether a patient is in a dissociated state. Both males and females with major depression evidenced a bimodal distribution of scores on the GNS with a distance of three standard deviations between their respective means. The GNS has identified a unique subgroup within the population of people diagnosed with major depression who manifest the unique phenomenological experience and associated symptoms of having no feelings. […] By evaluating a patient with the Glover Numbing Scale prior to administration of an opiate antagonist, and reassessing the patient after treatment, one of skill in the art can readily determine if the opiate antagonist is reversing or alleviating dissociation.
In one embodiment, the Glover Numbing Scale is a 35-item self-report questionnaire that systematically measures the frequency of experiences associated with “numbness,” an essential symptom of dissociation. Each item is rated on a seven-point scale by the patient, with scores corresponding to the following responses: 1, never; 2, very rarely; 3, rarely; 4, occasionally; 5, frequently, 6, very frequently; and 7, always. The highest possible score according to the Glover Numbing Scale is 245 (35 items by 7 points per item); a higher score indicates a more persistent degree of numbness and associated symptoms of dissociation. […] See S. Ramirez, supra at 194-95. According to the present invention, a Glover Numbing Scale score greater than about 100 should be considered consistent with the presence of dissociation. […] In another embodiment, a GNS score less than about 60 can be considered clinically non-significant.
That is, according to one embodiment of the present invention, a patient evaluated according to the Beck Depression Inventory to have a total BDI of about 10 or more, would be diagnosed as suffering from depression. According to the present invention, the depressed patient would then be evaluated according to the Glover Numbing Scale to assess the refractory nature of the patient's depression. If the patient scored about 100 or above, and positively to any of the eight salient items on the GNS, the patient is then affirmatively diagnosed as suffering from refractory depression characterized by dissociation according to one embodiment of the present invention. According to the present invention, the diagnosis may be made immediately after evaluating the patient according to the Glover Numbing Scale in conjunction with the Beck Depression Inventory in the context of an initial diagnostic assessment. The 35 items of the Glover Numbing Scale (GNS) describe the breadth of problems that can be associated with dissociation. Eight of the 35 items, however, uniquely discriminate dissociative experiences from symptoms of depression at a very high degree of probability. It is recommended that these eight items be scored separately at the time of the initial evaluation, and be used to monitor the patient's response to treatment at regular intervals until the patient is in full remission or has achieved the maximum beneficial response to medication.
At the time of remission the patient's responses to all of the other […] items on the GNS can be individually assessed by the clinician to ascertain if any residual symptoms are present which may require further attention. […]

[2] = test system: refractory depression characterized by dissociation; experiment: Beck Depression Inventory (BDI) questionnaire measuring depression in the treated patient; type: in vivo, human
Source text: Although any known test for measuring depression may be used as an indicator or measure of depression, the Beck Depression Inventory (“BDI”) is a preferred test for the present invention. The Beck Depression Inventory is a questionnaire developed by Aaron T. Beck, M.D. in 1978 to measure the presence and severity of depression. This test provides an exemplary method of measuring depression over the course of treatment according to the present invention. This test can also be used for reassessing a patient during treatment. The reassessment may be used to determine choice and dosage of antidepressant. The second edition of the Beck Depression Inventory is a 21-item questionnaire with each item rated on a four-point Likert scale (0-3) with total scores ranging from 0 to 63. A higher score indicates a more severe level of depression. Generally, a total score below 10 indicates no depression; a score from 10-16 indicates mild depression; 17-29 indicates moderate depression; and 30-63 indicates severe depression. According to the present invention, a score of about 10 or above would indicate diagnosis and treatment according to the present invention, with the patient more preferably presenting a BDI score of about 17 or above. A BDI score of less than about 10 is clinically non-significant. Eleven items of the BDI specifically identify how a depressed person thinks and feels about himself or herself. […] In paraphrased form they are: feeling disappointment in oneself; critical of oneself; suicidal thoughts; sadness; discouraged about the future; feelings of being punished; guilty; feeling like a failure; feeling a lack of satisfaction; feeling old/unattractive/ugly; and loss of interest in people. See S. Ramirez, supra.

depression = experiment: Clinical observation / patient report of response to medication (case reports); type: in vivo, human; details: A person; for Response to antidepressants in the past: earlier episodes of unipolar depression, recurrent type
Method: Both antidepressants were stopped and they were then administered desipramine (a tricyclic antidepressant) up to 150 mg./day for 4 weeks. […] Desipramine was discontinued and a person was started on a course of electric shock treatment (ECT) on an outpatient basis. They received a total number of 8 treatments, administered 2 times per week.
(§1) Mrs. […] Lithium carbonate 300 mg. b.i.d. was added to the Prozac for one week, and afterward Prozac was increased over the next 4 weeks to 60 mg./day. […] In succession, they were tried on amitriptyline up to 300 mg./day with monitoring of medication blood levels, and venlafaxine up to 375 mg./day.

patient = experiment: Side effects reported by the patient during treatment; type: in vivo, human; details: A person; nalmefene 50 to 150 mg b.i.d.
Method: They were reassessed with the BDI and the GNS. One week later a person was able to identify their mood as sad and lonely. […] Their BDI was now scored at 20 and their GNS score fell to 70.
It was decided to maintain the patient on amitriptyline while introducing nalmefene 50 mg. b.i.d. Four days later the dose of nalmefene was doubled. A person was monitored for side effects and changes of mood, using the eight salient items of the GNS and the eleven salient items of the BDI as guides. Mrs. […] During each visit the dose was […] 50 mg. to a final dose of 200 mg./day. Mrs.

[3] = A person; lithium carbonate 300 mg b.i.d.
Method: as §1

[4] = lithium carbonate 300 mg b.i.d. added to Prozac, Prozac increased to 60 mg/day over 4 weeks
[5] = A person, SAM-e 400 mg in divided doses, 800 mg five days later, started after the nalmefene course, one week afterward

C=C1CC[C@@]2(O)[C@H]3Cc4ccc(O)c5c4[C@@]2(CCN3CC2CC2)[C@H]1O5 [nalmefene]
GNS score ([1]; A person (Example 1), nalmefene 50 mg b.i.d. 3 days, 100 mg b.i.d. 4 days, then 150 mg b.i.d., one week later, score before treatment 142): 70 | GNS score ([1]; A person (Example 2), one week after nalmefene 200 mg b.i.d. reached, maintained on amitriptyline (final 200 mg/day), score before 148): 38 | Salient items of the GNS ([1]; A person, nalmefene 200 mg b.i.d. with amitriptyline): not to have been experienced | Salient items of the GNS ([1]; A person, nalmefene up to 150 mg b.i.d., during the past week): not have been experienced | BDI score ([2]; A person (Example 1), nalmefene 50 mg b.i.d. 3 days, 100 mg b.i.d. 4 days, then 150 mg b.i.d., one week later, score before treatment 23): 20 | BDI score ([2]; A person (Example 2), one week after nalmefene 200 mg b.i.d. reached, maintained on amitriptyline (final 200 mg/day), score before 24): 5 | Clinical response (feelings) (depression; nalmefene up to 150 mg b.i.d., one week later): no longer experienced any lack of feelings | Clinical response (patient report) (depression; one week after nalmefene 200 mg b.i.d. reached, with amitriptyline): felt their usual self once again | Side effects of drowsiness and tiredness (patient): mild and transient

CN(C)CCC=C1c2ccccc2CCc2ccccc21 [amitriptyline]
Clinical response (antidepressant effect) (depression; amitriptyline maintained while nalmefene introduced (50 mg b.i.d., doubled after four days)): began to feel the antidepressant effect for the first time | Clinical response (depression; amitriptyline up to 300 mg/day, calming effect with some reduction of sadness and emptiness): improved their level of energy

O=C([O-])[O-].[Li+].[Li+] [Lithium carbonate]
Clinical response (depression; [4]): lack of response | Serum lithium levels [3]: 0.6 and 0.7

CNCCCN1c2ccccc2CCc2ccccc21 [desipramine]
Clinical response (depression; desipramine up to 150 mg/day for 4 weeks, remained essentially depressed): some decrease of crying spells | Response to antidepressants in the past (depression): good responses

CC(NC(C)(C)C)C(=O)c1cccc(Cl)c1 (stereo not drawn) [Bupropion]
Clinical response (depression; Bupropion (sustain released) up to 300 mg/day added to paxil, other than some improvement in level of energy): little benefit

C[S+](CC[C@H](N)C(=O)[O-])C[C@H]1O[C@@H](n2cnc3c(N)ncnc32)[C@H](O)[C@@H]1O (stereo partly drawn) [SAM-e]
GNS score [1, 5]: 40 | BDI score [2, 5]: 6 | Clinical response (mood and energy) (depression; SAM-e 400 then 800 mg, started after the nalmefene course, one week afterward): marked improvement in mood and energy level

COc1ccc(C(CN(C)C)C2(O)CCCCC2)cc1 (stereo not drawn) [venlafaxine]
Clinical response (depression; venlafaxine up to 375 mg/day, calming effect with some reduction of sadness and emptiness): improved their level of energy

Fc1ccc([C@@H]2CCNC[C@H]2COc2ccc3c(c2)OCO3)cc1 [Paxil]
Clinical response (depression; Paxil up to 60 mg/day, unsuccessfully administered): mild to moderate calming effect | Response to antidepressants in the past (depression): good responses

CNCCC(Oc1ccc(C(F)(F)F)cc1)c1ccccc1 (stereo not drawn) [Prozac]
Clinical response (depression; initial treatment with Prozac, otherwise unchanged): reducing irritability | Clinical response (depression; [4]): lack of response
